In patent US11440923B2, “Substituted macrocyclic indole derivatives” (Bayer Aktiengesellschaft, priority 2017, dated 2022):
Counter-ions that a name gives are not always drawn. Like-named read-outs stand apart in the source and are kept apart here.

Tests used:
[1] = target: BCL-2 (Homo sapiens (Human), UniProt P10415); assay: Protein-protein interaction assay BCL-2/Bad BH3 peptide (BCL-2 assay, TR-FRET); type: binding; conditions: read-out: BCL-2 Assay IC50 (median)
How it was run: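 TR-FRET competition: 665/620 nm emission ratio after 330-350 nm excitation, normalized to DMSO controls and fitted to a 4-parameter model for IC50. Used 1 nM His-BCL-2 (residues 1-211) with 1 nM biotin-Bad BH3 tracer, Tris pH 7 with NaCl, KF, DTT. Compound/protein preincubation 10 min at 22° C. Read after 1 h 22° C plus overnight 4° C.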

[2] = tested on: SUDHL10 cells; assay: Induction of caspase-3/7 activity in SUDHL10 cells (Assay 4); type: cell-based
How it was run: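 Read-out: Caspase-Glo 3/7 luminescence (1 h, 37 °C) after cells, plated overnight, were treated with compounds for 3 h at 37 °C. Signal corrected for cell-free medium background and expressed relative to DMSO control mean.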

[3] = tested on: SUDHL5 cells; assay: Induction of cytotoxicity in SUDHL5 cells (Assay 6); type: cell-based; conditions: 5 h, CellTiter-Glo, read-out: Cytotox SUDHL5 IC50 (median)
How it was run: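 Cells plated overnight at 37 °C, then exposed to compound for 5 h in a humidified incubator at 37 °C. Viability read by CellTiter-Glo luminescence after 15 min shaking at room temperature; cell-free medium served as control.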

[4] = tested on: HMC-1-8 cells; assay: Antiproliferation assay HMC-1-8 (Assay 7); type: cell-based
How it was run: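 72 h antiproliferation, 37 °C, CellTiter-Glo luminescence. Day 0 plate = CI; DMSO = C0; IC50 calculated from these.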

[5] = read-out: Caspase SUDHL10 EC50 (median); caspase-3/7 induction, 3 h
[6] = caspase-3/7 induction, 3 h; read-out: Caspase SUDHL10 EC50 (median)
[7] = 72 h, CellTiter-Glo; read-out: Antiproli HMC-1-8 IC50 median
[8] = Homo sapiens, SU-DHL10, 3 h, caspase-3/7 induction, 3 h; read-out: Caspase SUDHL10 EC50 (median)
[9] = 72 h, CellTiter-Glo, read-out: Antiproli HMC-1-8 IC50 median

Sequence of BCL-2 (P10415 1-211): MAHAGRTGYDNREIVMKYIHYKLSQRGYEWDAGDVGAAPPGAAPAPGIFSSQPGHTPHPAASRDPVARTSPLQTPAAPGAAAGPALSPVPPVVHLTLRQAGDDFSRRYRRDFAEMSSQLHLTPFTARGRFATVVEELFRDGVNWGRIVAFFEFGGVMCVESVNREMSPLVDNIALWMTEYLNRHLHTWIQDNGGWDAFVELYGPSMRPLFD

Compound	IC50 [1] [nM]	EC50 [2, 5] [nM]	IC50 [3] [nM]	IC50 ([4]; read-out: Antiproli HMC-1-8 IC50 median; 72 h, CellTiter-Glo) [nM]	EC50 [2, 6] [nM]	IC50 [4, 7] [nM]	EC50 [2, 8] [nM]	IC50 [4, 9] [nM]	IC50 ([3]; Homo sapiens, SU-DHL-5, 5 h) [nM]	IC50 ([4]; 72 h, read-out: Antiproli HMC-1-8 IC50 median, 72 h, CellTiter-Glo) [nM]
CCc1c2c(nn1C)C(CC(C)(C)O)OCCCCn1c(C(=O)O)c(CCCOc3cccc4cc(F)ccc34)c3ccc(Cl)c-2c31 (single isomer, unassigned; enantiomer 1) [Example 53, (+)-4-chloro-3-ethyl-7-{3-[(6-fluoronaphthalen-1-yl)oxy]propyl}-15-(2-hydroxy-2-methylpropyl)-2-methyl-2,10,11,12,13,15-hexahydropyrazolo[4′,3′:9,10][1,6]oxazacycloundecino[8,7,6-hi]indole-8-carboxylic Acid—N-ethylethanamine Salt (Enantiomer 1)]	17000	160	95	983	–	–	–	–	–	–
CCc1c2c(nn1C)C(CCO)OCCCCn1c(C(=O)O)c(CCCOc3cccc4cc(F)ccc34)c3ccc(Cl)c-2c31 (single isomer, unassigned; enantiomer 2) [Example 46, (−)-4-chloro-3-ethyl-7-{3-[(6-fluoronaphthalen-1-yl)oxy]propyl}-15-(2-hydroxyethyl)-2-methyl-2,10,11,12,13,15-hexahydropyrazolo[4′,3′:9,10][1,6]oxazacycloundecino[8,7,6-hi]indole-8-carboxylic Acid (Enantiomer 2)]	> 20000	–	4300	–	4000	> 33000	–	–	–	–
CCc1c2c(nn1C)C(CCC1CCOCC1)OCCCCn1c(C(=O)O)c(CCCOc3cccc4cc(F)ccc34)c3ccc(Cl)c-2c31 (racemic) [Example 60, (rac)-4-chloro-3-ethyl-7-{3-[(6-fluoronaphthalen-1-yl)oxy]propyl}-2-methyl-(15-rac)-[2-(oxan-4-yl)ethyl]-2,10,11,12,13,15-hexahydropyrazolo[4′,3′:9,10][1,6]oxazacycloundecino[8,7,6-hi]indole-8-carboxylic Acid]	14100	–	77	–	–	–	77	951	–	–
Cc1c2c(nn1C)C(CCO)OCCCCn1c(C(=O)O)c(CCCOc3cccc4ccccc34)c3ccc(Cl)c-2c31 (single isomer, unassigned; enantiomer 1) [Example 31, (+)-4-chloro-15-(2-hydroxyethyl)-2,3-dimethyl-7-{3-[(naphthalen-1-yl)oxy]propyl}-2,10,11,12,13,15-hexahydropyrazolo[4′,3′:9,10][1,6]oxazacycloundecino[8,7,6-hi]indole-8-carboxylic Acid (Enantiomer 1)]	> 20000	–	370	–	240	6800	–	–	–	–
COCCC1OCCCCn2c(C(=O)O)c(CCCOc3cccc4ccccc34)c3ccc(Cl)c(c32)-c2c1nn(C)c2C (racemic) [Example 37, (rac)-4-chloro-(15-rac)-(2-methoxyethyl)-2,3-dimethyl-7-{3-[(naphthalen-1-yl)oxy]propyl}-2,10,11,12,13,15-hexahydropyrazolo[4′,3′:9,10][1,6]oxazacycloundecino[8,7,6-hi]indole-8-carboxylic Acid]	> 20000	–	–	–	–	–	210	7450	390	–
CCc1c2c(nn1C)C(CCO)OCCCCn1c(C(=O)O)c(CCCOc3cccc4cc(F)ccc34)c3ccc(Cl)c-2c31 (racemic) [Example 44, (rac)-4-chloro-3-ethyl-7-{3-[(6-fluoronaphthalen-1-yl)oxy]propyl}-(15-rac)-(2-hydroxyethyl)-2-methyl-2,10,11,12,13,15-hexahydropyrazolo[4′,3′:9,10][1,6]oxazacycloundecino[8,7,6-hi]indole-8-carboxylic Acid]	> 20000	–	–	–	–	–	150	2630	140	–
CCc1c2c(nn1C)C(CCN1CCC(F)(F)C1)OCCCCn1c(C(=O)O)c(CCCOc3cccc4cc(F)ccc34)c3ccc(Cl)c-2c31 (racemic) [Example 55, (rac)-4-chloro-(15-rac)-[2-(3,3-difluoropyrrolidin-1-yl)ethyl]-3-ethyl-7-{3-[(6-fluoronaphthalen-1-yl)oxy]propyl}-2-methyl-2,10,11,12,13,15-hexahydropyrazolo[4′,3′:9,10][1,6]oxazacycloundecino[8,7,6-hi]indole-8-carboxylic acid—2-hydroxypropane-1,2,3-tricarboxylic Acid Salt]	> 20000	–	–	–	–	–	47	172	41	–
CCC1OCCCCn2c(C(=O)O)c(CCCOc3cccc4ccccc34)c3ccc(Cl)c(c32)-c2c1nn(C)c2C (racemic) [Example 25, (rac)-4-chloro-15-ethyl-2,3-dimethyl-7-{3-[(naphthalen-1-yl)oxy]propyl}-2,10,11,12,13,15-hexahydropyrazolo[4′,3′:9,10][1,6]oxazacycloundecino[8,7,6-hi]indole-8-carboxylic Acid]	> 20000	–	–	–	–	–	10000	12900	2800	–
CCc1c2c(nn1C)C(CCC1CCOCC1)OCCCCn1c(C(=O)O)c(CCCOc3cccc4cc(F)ccc34)c3ccc(Cl)c-2c31 (single isomer, unassigned; enantiomer 2) [Example 62, (−)-4-chloro-3-ethyl-7-{3-[(6-fluoronaphthalen-1-yl)oxy]propyl}-2-methyl-15-[2-(oxan-4-yl)ethyl]-2,10,11,12,13,15-hexahydropyrazolo[4′,3′:9,10][1,6]oxazacycloundecino[8,7,6-hi]indole-8-carboxylic Acid (Enantiomer 2)]	> 20000	–	6300	–	6900	21900	–	–	–	–
CCc1c2c(nn1C)C(CCO)OCCCCn1c(C(=O)O)c(CCCOc3cccc4cc(F)ccc34)c3ccc(Cl)c-2c31 (single isomer, unassigned; enantiomer 1) [Example 45, (+)-4-chloro-3-ethyl-7-{3-[(6-fluoronaphthalen-1-yl)oxy]propyl}-15-(2-hydroxyethyl)-2-methyl-2,10,11,12,13,15-hexahydropyrazolo[4′,3′:9,10][1,6]oxazacycloundecino[8,7,6-hi]indole-8-carboxylic Acid (Enantiomer 1)]	> 20000	–	76	–	99	2140	–	–	–	–
CCc1c2c(nn1C)C(CCN1CCOCC1)OCCCCn1c(C(=O)O)c(CCCOc3cccc4cc(F)ccc34)c3ccc(Cl)c-2c31 (racemic) [Example 22, (rac)-4-chloro-3-ethyl-7-{3-[(6-fluoronaphthalen-1-yl)oxy]propyl}-2-methyl-15-[2-(morpholin-4-yl)ethyl]-2,10,11,12,13,15-hexahydropyrazolo[4′,3′:9,10][1,6]oxazacycloundecino[8,7,6-hi]indole-8-carboxylic Acid]	> 20000	–	–	–	–	–	20	279	11	–
CCc1c2c(nn1C)C(CCOC)OCCCCn1c(C(=O)O)c(CCCOc3cccc4cc(F)ccc34)c3ccc(Cl)c-2c31 (racemic) [Example 41, (rac)-4-chloro-3-ethyl-7-{3-[(6-fluoronaphthalen-1-yl)oxy]propyl}-(15-rac)-(2-methoxyethyl)-2-methyl-2,10,11,12,13,15-hexahydropyrazolo[4′,3′:9,10][1,6]oxazacycloundecino[8,7,6-hi]indole-8-carboxylic Acid]	18100	–	–	–	–	–	130	1310	170	–
CCc1c2c(nn1C)C(CCN1CCOCC1)OCCCCn1c(C(=O)O)c(CCCOc3cccc4ccccc34)c3ccc(F)c-2c31 (racemic) [Example 10, (rac)-3-ethyl-4-fluoro-2-methyl-15-[2-(morpholin-4-yl)ethyl]-7-[3-(naphthalen-1-yloxy)propyl]-2,10,11,12,13,15-hexahydropyrazolo[4′,3′:9,10][1,6]oxazacycloundecino[8,7,6-hi]indole-8-carboxylic Acid]	> 20000	–	–	–	–	–	220	1490	140	–
CCC1OCCCCn2c(C(=O)O)c(CCCOc3cccc4ccccc34)c3ccc(Cl)c(c32)-c2c1nn(C)c2C (single isomer, unassigned; enantiomer 1) [Example 29, (+)-4-chloro-15-ethyl-2,3-dimethyl-7-{3-[(naphthalen-1-yl)oxy]propyl}-2,10,11,12,13,15-hexahydropyrazolo[4′,3′:9,10][1,6]oxazacycloundecino[8,7,6-hi]indole-8-carboxylic Acid—N-ethylethanamine Salt (Enantiomer 1)]	> 20000	3700	1100	–	–	–	–	–	–	23200
